Results on 1 compound are retold here after paper PMC13489962, “Small-molecule modulation of β-arrestins” (Nature, 2026).

Structures are written as SMILES.

One experiment concerns β-arrestin. In words: Functional assays (not specified). Particulars: peer review reply.
The target of a further experiment is T1, βARR1 P133A (Rattus norvegicus, UniProt P29066, P133A).
T1 construct: βARR1 or βARR2 construct, with their C terminus truncated (at amino acid 393 or 394, respectively); GST (pGEX4T1) (N, cleaved yes); made in house; host or cells: E. coli BL21 (DE3) pLysS
T1 sequence (P29066 1-393 P133A): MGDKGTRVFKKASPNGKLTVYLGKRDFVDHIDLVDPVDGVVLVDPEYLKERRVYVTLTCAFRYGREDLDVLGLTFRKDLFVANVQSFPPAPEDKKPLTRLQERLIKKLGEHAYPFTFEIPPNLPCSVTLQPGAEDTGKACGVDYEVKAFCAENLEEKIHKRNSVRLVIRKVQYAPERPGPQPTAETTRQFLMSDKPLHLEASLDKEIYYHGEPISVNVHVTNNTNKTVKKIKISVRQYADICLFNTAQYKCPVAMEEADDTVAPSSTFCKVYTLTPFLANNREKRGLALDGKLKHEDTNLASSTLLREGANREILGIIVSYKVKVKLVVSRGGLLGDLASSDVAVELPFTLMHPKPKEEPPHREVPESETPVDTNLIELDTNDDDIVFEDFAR
In words: ITC binding to βARR1 mutant P133A. Particulars: 25 °C. On the procedure:
(§1) The expression and purification of β-arrestins have been described previously[44],[62]–[64]. In brief, E. coli BL21 (DE3) pLysS cells (New England Biolabs: C2527I) carrying pGEX4T1-Rattus norvegicus βARR1 or βARR2 construct, with their C terminus truncated (at amino acid 393 or 394, respectively), were cultured in Terrific Broth (Teknova) medium at 37 °C. After OD600 reached 0.6–0.8, the cells were induced with 0.1 mM isopropyl-β-D-thiogalactopyranoside (IPTG) at 18 °C overnight. Bacteria were collected by centrifugation (4,000 rpm), and cell pellets were resuspended in lysis buffer (20 mM HEPES, pH 8, 150 mM NaCl, 10% glycerol, 1 mM EDTA, 0.2 mM dithiothreitol (DTT), 1 mM phenylmethylsulfonyl fluoride, and 1 mM benzamidine) at 4 °C for 1 h. […] Eluted fractions were analysed by SDS–PAGE, pooled, concentrated using 30 kDa MWCO Amicon Ultra-15 Centrifugal Filter devices, flash-frozen in liquid nitrogen, and stored in aliquots at −80 °C. […] Protein concentrations for each protein were determined by ultraviolet absorption at 280 nm and extinction coefficients estimated using the ExPASy ProtParam tool[67].
(§2) ITC measurements were performed on a MicroCal iTC200 system at 25 °C. […] Protein concentrations were determined by spectrophotometry at 280 nm, using extinction coefficients calculated from each protein sequence via the ProtParam program. […]

In the next experiment the target is T2, βARR1 Y249A (Rattus norvegicus, UniProt P29066, Y249A).
T2 construct: βARR1 or βARR2 construct, with their C terminus truncated (at amino acid 393 or 394, respectively); GST (pGEX4T1) (N, cleaved yes); made in house; host or cells: E. coli BL21 (DE3) pLysS
T2 sequence (P29066 1-393 Y249A): as the sequence (P29066 1-393 P133A) above, with A133P, Y249A counted along it
In words: ITC binding to βARR1 mutant Y249A. On the procedure:
as §1, §2

The next experiment has as its target T3, βARR1 R285A (Rattus norvegicus, UniProt P29066, R285A).
T3 construct: βARR1 or βARR2 construct, with their C terminus truncated (at amino acid 393 or 394, respectively); GST (pGEX4T1) (N, cleaved yes); made in house; host or cells: E. coli BL21 (DE3) pLysS
In words: ITC binding to βARR1 mutant R285A. The procedure:
as §1, §2

Experiment [1] relates to βARR1 MCL site mutants coupling to pβ2V2R. In words: [3H]-Fen binding with βARR1 MCL site mutants. The format is biochemical, Rattus norvegicus. Particulars: mutations P131A, D135A, K138A, C140A and E283A. The procedure:
as §1, with “overnight.” for “overnight. Bacteria were collected by centrifugation (4,000 rpm), and cell pellets were resuspended in lysis buffer (20 mM HEPES, pH 8, 150 mM NaCl, 10% glycerol, 1 mM EDTA, 0.2 mM dithiothreitol (DTT), 1 mM phenylmethylsulfonyl fluoride, and 1 mM benzamidine) at 4 °C for 1 h.”
To assess the effects of β-arrestin modulators on β-arrestin- or Gαs–βγ-promoted high-affinity agonist binding, [^3H]-Fen binding assays were performed using membranes from Sf9 cells expressing phosphorylated β2V2R (pβ2V2R) or β2AR[28]. […] Bound [^3H]-Fen was extracted overnight in scintillation fluid and quantified by scintillation counting. Specific binding was calculated by subtracting nonspecific from total binding.

T3 sequence (P29066 1-393 R285A): as the sequence (P29066 1-393 P133A) above, with A133P, R285A counted along it

One may read the Kd as the constant that tells how readily two partners part at equilibrium. A low value points to a tighter complex. With `C=C1C(=O)[C@]23[C@H](O)[C@H]1CC[C@H]2[C@@]12CO[C@]3(O)[C@@H](O)[C@@H]1C(C)(C)CC[C@@H]2O` [Cmpd-5, (1S,4aR,5S,6S,6aR,9S,11aS,11bS,14R)-1,5,6,14-tetrahydroxy−4,4-dimethyl-8-methylenedecahydro-1H-6,11b-(epoxymethano)-6a,9-methanocyclohepta[a]naphthalen-7(8H)-one], the “binding affinity from functional assays” value in the experiment on β-arrestin was in the range of 2 to 10 µM. The figures for the Kd at βARR1 P133A and on βARR1 Y249A (25 °C) were 1 ± 0.4 µM and 3.8 ± 0.9 µM, respectively. Moreover, the “Kd fold over WT, βARR1 Y249A” value on βARR1 Y249A worked out at 10.6 fold. In addition, at βARR1 R285A, the “Kd fold over WT, βARR1 R285A” value is recorded as 46.5 fold. Also, the “ΔH, βARR1 R285A” value on βARR1 R285A (25 °C) is -1.5 kcal/mol. The “effect of mutation on Cmpd-5 inhibition of βARR1 coupling” value in experiment [1] was “negligible effects”.
